Source: US20240139167A1, “LYSOSOME-ASSOCIATED MEMBRANE PROTEIN TARGETING COMPOUNDS AND USES THEREOF” (HADASIT MEDICAL RESEARCH SERVICES AND DEVELOPMENT LTD., priority 2021, published 2024)

How the values were obtained:
[1] = test system: Gbe^ys/ys mice; experiment: Survival, weight and motor phenotypes in APBD mouse model; format: in vivo
Description: Pictures of 7-months old Gbe^ys/ys mice treated with vehicle (1L), or Compound 1 (1M) for 3 months prior to photography.
The presented experiments combine in vivo, ex vivo and in vitro studies on the therapeutic potential of the newly discovered compound Compound 1 for treating APBD. In the in vivo section, the inventors have tested Compound 1 for its capacity to correct disease phenotypes in Gbe^ys/ys female mice. Two arms, 5% DMSO vehicle and Compound 1, of initially n=7-9 animals each were used. […] Additional open field, gait, and extension reflex tests (FIGS. 1E-1H) also included a C57BL/6 wild type control arm of n=9 animals. Animals were excluded from the experiment if weight was reduced by >10% between sequential weightings or by >20% from initiation. […] 150 μL of 250 mg/kg Compound 1 in 5% DMSO were injected twice a week. Vehicle control was 5% DMSO. Injection was intravenous (IV) for the first month, followed by subcutaneous (SC) injection due to lack of injection space and scaring in animal tails. The inventors initiated the injections either at the age of 4 months, two months prior to disease onset, assuming a preferred prophylactic effect, or at the 6 months age of onset for comparison. Treatment was continued until the age of 10 months. The effect of Compound 1 on various motor parameters was tested approximately every two weeks. At the end of these experiments, some of the mice were sacrificed by cervical dislocation and tissues from n=2 wild type, n=7 Gbe^ys/ys vehicle-treated, and n=9 Compound 1-treated mice were collected, sectioned, fixed, and stained for diastase-resistant PG by PAS (FIGS. 2A-2C). Tissue glycogen was determined biochemically as described. In addition, Compound 1 pharmacokinetic profile was determined by LC-MS/MS in serum and tissues derived from n=3 mice/time point. Experimenters were blinded to treatment allocation.
In FIGS. 1A-1M the significance of overall trends was tested by Two-way ANOVA with repeated measures. […] The Bonferroni test was used to compare between Compound 1 and vehicle in a way which corrects for the multiple comparisons and is therefore very robust (since the threshold for determining significance at each time point is reduced in a manner inversely proportional to the number of comparisons). […] In FIGS. 4D and 6E the inventors used One Way ANOVA with Sidak's post-hoc correction for multiple comparisons. Other statistical tests used were Student t-tests.

[2] = Pharmacokinetics, tissue levels by LC-MS/MS; format: in vivo, mice; conditions: 250 mg/kg subcutaneous
Description: FIGS. 2A-2C include images and graphs of histopathological effects of Compound 1 and its pharmacokinetics: right panel present images of indicated tissues of sacrificed mice and stained for PG (arrows) with PAS following treatment with diastase; left panel, presents bar graphs quantifying PAS staining, based on analysis of 4 sections from each tissue in n=2 wild type, n=7 Gbe^ys/ys vehicle-treated, and n=9 Compound 1-treated mice (2A); bar graph quantifying total glycogen in the respective tissues (2B); graph of Compound 1pharmacokinetics (2C); 9 months old Gbe^ys/ys mice were SC-injected with 150 μL of Compound 1 at 250 mg/kg. Mice were sacrificed 30-, 60-, 90-, and 210-min post injection and the indicated tissues were removed, as well as 200 μL of serum drawn. […] Shown are means and SEM of results obtained from n=3 mice at each time point.
For pharmacokinetic analysis, 100 μL serum as well as brain, kidney, hind limb quad muscle, heart, liver, and spleen tissues were collected, homogenized, and extracted with acetonitrile following established guidelines. Calibration curves were made with 0, 1, 10, 100, and 1,000 ng/ml Compound 1 in 1 mg/ml solutions of 4-tert-butyl-2-(4H-1,2,4-triazol-4-yl)phenol (ChemBridge) as internal standard (IS). Tissue samples were then dissolved in 1 mg/ml IS solutions and spiked with 0-1,000 ng/ml Compound 1 to generate standard curves from which tissue levels of Compound 1 were determined. Samples were analyzed by the LC-MS/MS Sciex Triple Quad™ 5500 mass spectrometer.
Pharmacokinetic analysis is instrumental for explaining the effects of Compound 1 in-situ regardless of its innate capacity to modify polyglucosans in isolated cells. The reason for that is that timing of arrival, distribution and stability in the tissue are key determinants of the in-situ activity of any pharmacological agent. To determine the distribution and kinetic parameters of Compound 1 in different tissues, the inventors have treated Gbe^ys/ys mice with 250 mg/kg Compound 1 via subcutaneous injection, as done in the efficacy experiments. Mice were then sacrificed 0, 30-, 60-, 90-, and 210-min post administration and 100 μL serum as well as brain, kidney, hind limb skeletal muscle, heart, liver, and spleen tissues were collected, homogenized, extracted and their Compound 1 levels were analyzed by liquid chromatography tandem mass spectrometry (LC-MS/MS). The differential effects of Compound 1 on glycogen and polyglucosan content in the different tissues match its differential distribution and dwell time in each respective tissue. […] However, those levels persist up until 60 minutes post injection, which might account for the Compound 1-mediated reduction in polyglucosan, and glycogen content observed in these tissues. […] Based on the sampling times used, time to C. was 30 min for all the tissues studied indicating similar rate of absorption to all these tissues. The highest C. is observed in liver and kidney matching their well-established rapid perfusion.

COCCN(Cc1sccc1C)C(=O)c1cc(C)nc(O)c1 [Compound 1]
animal weight over time ([1]; 250 mg/kg twice a week from age 4 months): mitigated the decline in animal weight over time | animal survival ([1]; 250 mg/kg twice a week from age 4 months, vs 5% DMSO vehicle): significantly improved animal survival | ameliorating effect on open field, weight and overall extension reflex ([1]; administered after disease onset at the age 6 months): ameliorating effect did not take place | Extension reflex ([1]; administered at onset (6 months), at the age of 9 months): only parameter improved by the compound from the advanced stage of the disease | open field performance ([1]; from 8 months, 134 days post injection): improved open field performance | gait (stride length) ([1]; mouse age of 9 months): improved gait, or increased stride length | overall extension reflex ([1]; throughout the study period, p<0.05): significantly improved | C. in liver and kidney, rank among tissues [2]: highest | C. in skeletal quadriceps muscle, rank among tissues [2]: lowest | accumulation in muscle [2]: negligible accumulation | levels in heart and brain [2]: intermediate levels | persistence of levels in heart and brain post injection [2]: ≤ 60 min | time to C. ([2]; all the tissues studied): 30 min | half-life ([2]; mouse, liver, sc, Gbe^ys/ys mice): > 3 h
